Assays:
[1] = test system: synthesis of LTB4 in human whole blood; assay: human whole blood (HWB) assay, LTB4 production inhibition after calcimycin stimulation; type: cell-based; conditions: heparinized human whole blood, calcimycin 20 μM, plasma LTB4 by HTRF
In short: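 Plasma LTB4, quantified by HTRF immunoassay, is the read-out after calcimycin challenge (20 μM final, 30 min, 37 °C) of heparinized whole blood that had been pretreated with compound for 15 min at 37 °C; values given as IC50.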

human LTA4 hydrolase = target: T1, human LTA4 hydrolase (Homo sapiens, UniProt P09960); assay: LTA4H Enzyme assay (cleavage of Arg-AMC, fluorescence); type: biochemical; conditions: LTA4H Enzyme 1 nM, Arg-AMC substrate 50 μM, room temperature 1 h, fluorescence; read-out: IC50 values of LTA4H Enzyme assay
T1 sequence (P09960 1-611): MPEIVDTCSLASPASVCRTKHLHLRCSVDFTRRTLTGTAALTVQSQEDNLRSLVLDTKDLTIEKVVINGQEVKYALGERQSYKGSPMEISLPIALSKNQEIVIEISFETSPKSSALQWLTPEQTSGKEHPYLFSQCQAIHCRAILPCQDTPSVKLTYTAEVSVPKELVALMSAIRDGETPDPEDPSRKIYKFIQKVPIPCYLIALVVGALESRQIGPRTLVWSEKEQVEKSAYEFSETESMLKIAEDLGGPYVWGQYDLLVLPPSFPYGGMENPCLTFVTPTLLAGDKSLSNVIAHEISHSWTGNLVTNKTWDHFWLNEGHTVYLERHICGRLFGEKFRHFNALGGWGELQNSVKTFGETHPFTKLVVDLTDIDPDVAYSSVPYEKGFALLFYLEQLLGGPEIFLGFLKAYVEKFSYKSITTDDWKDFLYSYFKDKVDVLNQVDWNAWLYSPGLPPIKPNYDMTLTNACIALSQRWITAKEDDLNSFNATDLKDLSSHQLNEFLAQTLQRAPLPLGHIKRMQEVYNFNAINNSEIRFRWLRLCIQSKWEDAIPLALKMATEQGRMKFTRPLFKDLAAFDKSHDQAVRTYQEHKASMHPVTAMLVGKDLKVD
In short: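 Aminomethylcoumarin release measured fluorimetrically (380/460 nm) after 1 h at room temperature. Reaction: 1 nM final enzyme, 50 μM final Arg-AMC and compound in Tris-HCl pH 7.5 with 100 mM KCl and 0.5% BSA.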

SMILES	IC50 [1] [nM]	IC50 (human LTA4 hydrolase) [nM]
CCN(Cc1ccc([C@H]2COc3ccccc3O2)cc1)C1CCCC1 [Example 109, N-{4-[(2S)-2,3-dihydro-1,4-benzodioxin-2-yl]benzyl}-N-ethylcyclopentanamine]	76	0.17
CC(=O)N1CC[C@@H](NCc2ccc([C@H]3COc4ccccc4O3)cc2)C1 [Example 64, 1-[(3R)-3-({4-[(2S)-2,3-dihydro-1,4-benzodioxin-2-yl]benzyl}amino)pyrrolidin-1-yl]ethanone]	158	0.83
C[C@H](O)CNC(=O)[C@H]1[C@@H]2CN(Cc3ccc([C@H]4COc5cccnc5O4)cc3)C[C@@H]21 [Example 247, [(1α,5α,6α)-3-[(S)-4-(2,3-dihydro-[1,4]dioxino[2,3-b]pyridin-3-yl)-benzyl]-3-aza-bicyclo[3.1.0]hexane]-6-carboxylic acid ((S)-2-hydroxy-propyl)-amide]	68	0.17
CC(=O)N1CCCC12CCN(Cc1ccc([C@H]3COc4ccccc4O3)cc1)C2 (stereo partly drawn) [Example 118, 1-(7-{4-[(2S)-2,3-dihydro-1,4-benzodioxin-2-yl]benzyl}-1,7-diazaspiro[4.4]non-1-yl)ethanone]	256	0.45
CC(=O)N1CCN(Cc2ccc([C@H]3COc4cccnc4O3)cc2)CC1 [Example 185, 1-(4-{4-[(3S)-2,3-dihydro[1,4]dioxin[2,3-b]pyridin-3-yl]benzyl}piperazin-1-yl)ethanone]	92	0.59
c1cnc2c(c1)OC[C@H](c1ccc(CNC3CCC3)cc1)O2 [Example 173, N-{4-[(3S)-2,3-dihydro[1,4]dioxino[2,3-b]pyridin-3-yl]benzyl}cyclobutanamine]	73	0.73
CC(C)(O)C(=O)NCC1CCN(Cc2ccc([C@H]3COc4cccnc4O3)cc2)CC1 [Example 262, N-{1-[(S)-4-(2,3-Dihydro-[1,4]dioxino[2,3-b]pyridin-3-yl)-benzyl]-piperidin-4-ylmethyl}-2-hydroxy-2-methyl-propionamide]	170	0.51
COCC(=O)NC1CCN(Cc2ccc([C@H]3COc4ccccc4O3)cc2)CC1 [Example 219, N-(1-{4-[(2S)-2,3-dihydro-1,4-benzodioxin-2-yl]benzyl}piperidin-4-yl)-2-methoxyacetamide]	149	0.49
CCCCN(Cc1ccc(C(=O)O)cc1)Cc1ccc([C@H]2COc3ccccc3O2)cc1 [Example 237, 4-[(butyl{4-[(2S)-2,3-dihydro-1,4-benzodioxin-2-yl]benzyl}amino)methyl]benzoic acid]	95	0.81
